Assay results taken from patent publication US20180168208A1 (priority 2014, published 2018).
pEC50: −log10 of the molar value. Read-outs that look alike come from different tables or passages of the source.

Target: T1, cat T1R1/T1R3 receptor (Felis catus, UniProt A0ABI7Z2I4)
T1 sequence (A0ABI7Z2I4 171-420): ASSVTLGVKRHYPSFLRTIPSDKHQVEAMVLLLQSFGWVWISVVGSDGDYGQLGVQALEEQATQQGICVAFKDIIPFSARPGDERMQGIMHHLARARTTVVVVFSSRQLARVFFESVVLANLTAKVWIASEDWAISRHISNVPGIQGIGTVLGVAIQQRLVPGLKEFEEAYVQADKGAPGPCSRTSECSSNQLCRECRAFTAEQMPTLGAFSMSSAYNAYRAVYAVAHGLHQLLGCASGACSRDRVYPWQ
T1 sequence (Q49KI5 25-865 E206Q/N523D/F654L partner): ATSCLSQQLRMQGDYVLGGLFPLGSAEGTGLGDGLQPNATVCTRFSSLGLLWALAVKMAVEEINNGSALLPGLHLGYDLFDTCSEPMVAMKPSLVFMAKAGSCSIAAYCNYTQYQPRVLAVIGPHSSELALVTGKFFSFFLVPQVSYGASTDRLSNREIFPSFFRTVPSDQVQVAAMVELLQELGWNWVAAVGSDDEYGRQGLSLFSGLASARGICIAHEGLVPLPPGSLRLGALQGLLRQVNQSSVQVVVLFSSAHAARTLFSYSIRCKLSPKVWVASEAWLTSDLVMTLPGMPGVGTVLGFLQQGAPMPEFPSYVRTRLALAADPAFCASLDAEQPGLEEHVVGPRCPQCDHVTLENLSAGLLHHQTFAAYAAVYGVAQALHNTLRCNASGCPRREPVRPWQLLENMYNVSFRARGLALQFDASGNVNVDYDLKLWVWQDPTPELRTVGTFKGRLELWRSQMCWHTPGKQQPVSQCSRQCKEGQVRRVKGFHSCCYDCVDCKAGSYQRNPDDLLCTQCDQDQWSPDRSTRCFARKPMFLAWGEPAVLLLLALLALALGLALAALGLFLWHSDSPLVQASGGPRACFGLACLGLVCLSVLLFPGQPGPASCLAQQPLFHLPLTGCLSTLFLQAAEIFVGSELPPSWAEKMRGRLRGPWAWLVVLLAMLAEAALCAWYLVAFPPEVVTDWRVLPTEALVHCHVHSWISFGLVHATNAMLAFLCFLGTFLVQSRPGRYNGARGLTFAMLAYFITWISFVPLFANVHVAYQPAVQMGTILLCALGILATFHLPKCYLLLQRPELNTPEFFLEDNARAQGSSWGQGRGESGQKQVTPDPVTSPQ
Test: cell-based
Settings: for function as activators of T1R1/T1R3 (in words): in the presence of alanine
Excerpt: HEK293 cells that stably express T1R3 and inducibly express T1R1 were exposed to nucleotide derivatives alone or in combination with one or more amino acids and/or one or more nucleotides to activate the umami receptor. Activation of the T1R1/T1R3 receptor was detected by a change in intracellular calcium levels using a calcium sensitive fluorescent dye and/or a luminescent reporter system. Cells that express T1R3 but not T1R1 were used as a control. A FLIPR® Tetra or a FlexStation® 3 was used for data capture.

[1] = maximum response in relation to the response with IMP, 20 mM alanine
[2] = maximum response of the receptor, 20 mM alanine
[3] = threshold amount that results in activation of T1R1/T1R3, 20 mM alanine

## CNc1ncnc2c1ncn2[C@H]1C[C@H](OP(=O)(O)O)[C@@H](COP(=O)(O)O)O1
  Max resp. (ΔF/F): 1.8150 ΔF/F
  Max. resp. % of IMP: 146.1 % of IMP
  Threshold: 0.013 mM

## O=C(Nc1ncnc2c1ncn2[C@@H]1O[C@H](COP(=O)(O)O)[C@@H](O)[C@H]1O)c1ccccc1
  Activity: active
  Max resp. (ΔF/F): 1.1 ΔF/F
  Threshold: 0.3 mM
read-out: EC50- with Ala
  pEC50: < 3.00

## O=c1ccn(C2OC(COP(=O)(O)N3CCOCC3)C(O)C2O)c(=O)[nH]1 (stereo not shown)
[1]
  Max. resp. % of IMP: 104.8 % of IMP
[2]
  Max resp. (ΔF/F): 1.0150 ΔF/F
[3]
  Threshold: 2.000 mM

## 2′-,3′-O-(N′-Methylanthraniloyl) guanosine-5′-O-monophosphate
[1]
  Max. resp. % of IMP: 74.3 % of IMP
[2]
  Max resp. (ΔF/F): 0.7190 ΔF/F
[3]
  Threshold: 0.0014 mM

## 2′-,3′-O-(N′-Methylanthraniloyl)guanosine-5′-O-monophosphate
+Alanine (20 mM)
  Activity: active
[1]
  Max. resp. % of IMP: 74.3 % of IMP
[2]
  Max resp. (ΔF/F): 0.7190 ΔF/F
[3]
  Threshold: 0.0014 mM

## 2′-, 3′-O—(N′-methylanthraniloyl)guanosine-5′-O-monophosphate
  function as activators of T1R1/T1R3 (in words): activators of T1R1/T1R3

## Nc1ncnc2c1ccn2[C@H]1O[C@@H](COP(=O)(O)O)[C@H](O)[C@@H]1O (stereo in doubt) [7-Deazaadenosine-5′-O-monophosphate]
  Activity: active
  Threshold: 0.188 mM

## Nc1nc2c(ncn2[C@H]2O[C@@H](COP(=O)(O)O)[C@H](O)[C@@H]2O)c(=O)[nH]1 (stereo in doubt) [guanosine monophosphate, reference compound]
  Activity: active
  pEC50: 4.52
  Threshold: 0.008 mM

## O=c1ccn([C@H]2O[C@@H](COP(=O)(O)O)[C@H](O)[C@@H]2O)c(=O)[nH]1 (stereo in doubt) [uridine monophosphate]
  Activity: active
  pEC50: < 1.52
  Threshold: 3.000 mM

## O=P(O)(O)OC[C@H]1O[C@@H](n2cnc3c2ncn2ccnc32)[C@H](O)[C@@H]1O [1, N6-Ethenoadenosine-5′-O-monophosphate]
  Threshold: 0.010 mM

## O=P(O)(O)OC[C@H]1O[C@@H](n2cnc3c2ncn2ccnc32)[C@H](O)[C@@H]1O [1,N6-Ethenoadenosine-5′-O-monophosphate]
+Alanine (20 mM)
  Activity: active

## Nc1nc(Cl)c2ncn(C3OC(COP(=O)(O)O)C(O)C3O)c2n1 (stereo not shown) [2-amino-6-chloropurineriboside-5′-O-monophosphate]
  Activity: active
  pEC50: 6.30
  Threshold: 0.00013 mM

## CNc1ccccc1C(=O)OC1C[C@H](n2cnc3c(=O)[nH]c(N)nc32)O[C@@H]1COP(=O)(O)O (stereo partly shown) [2′-Deoxy-3′-O-(N′-methylanthraniloyl) guanosine-5′-O-monophosphate]
  Activity: active
  Max resp. (ΔF/F): 0.295 ΔF/F
  Max. resp. % of IMP: 23.7 % of IMP
  Threshold: 0.0025 mM
  function as activators of T1R1/T1R3 (in words): activators of T1R1/T1R3

## CNc1ccccc1C(=O)O[C@H]1C[C@H](n2cnc3c(N)ncnc32)O[C@@H]1COP(=O)(O)O [2′-Deoxy-3′-O-(N′-methylanthraniloyl)adenosine-5′-O-monophosphate]
  Activity: active
  Max resp. (ΔF/F): 0.3975 ΔF/F
  Max. resp. % of IMP: 32.0 % of IMP
  Threshold: 0.0025 mM
